From patent publication US10369185B2, “Methods and compositions for enhancement of ability to concentrate” (KYOWA HAKKO BIO CO., LTD., priority 2014, dated 2019)
Peptide text beside a SMILES is read from it.

Columns and labels:
[1] = in vivo; cited from earlier work
male runners = experiment: Dynavision D2 visual, motor and physical reaction time to a visual stimulus; type: in vivo, human; conditions: between groups
Procedure: The testing protocol is depicted in FIG. 1. Data collection occurred on four separate occasions. Each session required participants to perform a 60-min run at 75% of their previously measured VO2max. Following this run, all participants performed a run at 90% of their VO2max until volitional exhaustion. All participants performed their first trial (DHY) without any rehydration. During this session the total weight lost during the trial was determined. The fluid loss that occurred during this session was then used to determine the participant's swear rate (L·hr^−1). To continue in the study, participant's sweat rate was or exceeded 1.3 L·hr^−1. […] The first assessment measured the participant's visual, motor, and physical reaction time to a stimulus with the dominant hand. […] Visual reaction time was determined as the amount of time from identifying the stimulus and initiating a reaction by leaving the home button. Motor response time was determined by the time (measured in 1/100's of a second) it took to physically strike the stimulus following the initial visual reaction and was measured as the amount of time from the hand leaving the home button and striking the stimulus. Physical reaction time was determined by the total elapsed time from the introduction of the target stimulus to the physical completion of the task (returning to the home button after striking the stimulus). […]

[2] = Blood measures during the 60-min run (plasma lactate, glucose, osmolality, potassium, sodium, glutamine); type: in vivo, human; conditions: at 45-min; HD compared with LD
Procedure: During each experimental session baseline (BL) blood samples were obtained at preexercise. Additional blood samples were also obtained following 30 min, 45 min and 60 min during the exercise session. All blood samples were obtained using a 20-gauge Teflon cannula placed in a superficial forearm vein using a 3-way stopcock with a male luer lock adapter. The cannula was maintained patent using an isotonic saline solution. BL blood samples were drawn following a 15-min equilibration period prior to exercise. Blood samples were obtained at the same time of day during each session.
Blood samples were drawn into plain or EDTA treated tubes. Blood samples will be analyzed in triplicate for hematocrit via microcapillary technique and hemoglobin. […]
Plasma glucose and lactate concentrations were determined in duplicate with an automated analyzer (Analox GM7 enzymatic metabolite analyzer, Analox Instruments USA, Lunenburg, Mass.). Plasma glutamine was analyzed with the use of a spectrophotometer and a commercially available enzymatic kit (Abnova, Jhongli City, Taiwan) per manufacturer's instructions. Serum immunoreactivity values were determined using a BioTekEon spectrophotometer (BioTek, Winooski, Vt., USA). Plasma sodium and potassium concentrations were assessed via ion-selective electrodes (EasyElectrolyte, Medica, Bedford, Mass.). […]

SMILES: C[C@H](N)C(=O)N[C@@H](CCC(N)=O)C(=O)O [L-Alanyl-L-Glutamine] (H-Ala-Gln-OH)
- degradation in the body [1]: immediately degraded into alanine and glutamine in the body
- change in visual, motor and physical reaction times to a visual stimulus (male runners): No significant differences were noted between groups
- plasma glutamine concentrations [2]: significant difference
